Measured values reported in paper PMC9570594, “Development of Novel Pyridine-Thiazole Hybrid Molecules as Potential Anticancer Agents” (Molecules, 2022).
Like-named read-outs stand apart in the source and are kept apart here.

Experiments:
MCF-7 cells [1] = assay: PARP-1 inhibition in vitro: MTT after Fluzoparib pretreatment; format: cell-based, human; details: for IC50: Homo sapiens, MCF7
Method: Taking into account the above data, PARP1 inhibition in vitro was investigated using pretreatment of the MCF-7 cells with the Fluzoparib, a potent PARP1 inhibitor in the non-toxic concentrations of 5, 10, and 15 µM. It had no significant growth inhibitory effect in such doses, and a reduction of cell viability by only 10–12% was observed compared to control (non-treated) cells. […] The preincubation step was used to bind PARP1 molecules, which were the potential targets of the studied compounds and to test if it would affect the activity of 3 and 4. […] The preincubation of cells with the Fluzoparib decreased their sensitivity to the compound 3 treatment in a less pronounced manner, compared with the effect of the compound 4. […] Changes in structure of the started compound 3 may cause an enhancement of the ability of molecule 4 to inhibit the activity of PARP1.
To determine PARP inactivation, the MCF-7 cells were pretreated for 2 h in the non-toxic concentrations of 5, 10, 15 µM of the Fluzoparib (Med Chem Express, Monmouth Junction, NJ, USA), a potent PARP1 inhibitor used in the chemotherapy. Then, the medium was removed and increasing doses of the compounds 3 and 4 were added and cells were incubated for the next 72 h. The IC50 values of compounds were determined by the MTT assay, as described.

KB3-1 cells = assay: Fluorescent microscopy of morphological changes (Hoechst 33342/PI); format: cell-based, human; details: 48 h
Method: In addition, we observed multinucleated giant cells. […] The condensed chromatin, a characteristic feature of apoptosis, and dead cells were observed under the action of all studied compounds.
KB3-1 cells were seeded in the 12-well plates (CytoONE, STARLAB International GmbH, Hamburg, Germany) on glass microscopic slides and incubated overnight. Studied compounds were added to cells in the following concentrations: the compounds 3, 4 and cisplatin—5 µM/mL, doxorubicin—1 µM/mL. Cells were incubated for the next 48 h. Chromatin material of living and apoptotic cells was stained with the DNA-specific fluorescent dye Hoechst 33342 (Sigma-Aldrich, Burlington, MA, USA) and the DNA/RNA-specific fluorescent dye Propidium iodide (PI, Sigma, Burlington, MA, USA). Fluorochromes were added to cultured cells at final concentrations 0.2–0.5 μg/mL for Hoechst 33342 and 0.1 μg/mL—for PI. Images were made with a fluorescent Zeiss microscope (Carl Zeiss, Oberkochen, Germany). Magnification ×400. Microphotographs were additionally analyzed using ImagePro7N software.

[2] = tested on: NCI-H522 (Non-Small Cell Lung Cancer); assay: NCI one-dose SRB assay; details: 10 μM, 48 h
Method: (§1) Primary anticancer assays (Table 3) on a panel of 60 cancer cell lines at one dose-assay (10^−5 M) were performed according to the NCI protocol, as described elsewhere [31, 32, 33, 34, 35].
(§2) A primary anticancer assay was performed on a panel of approximately sixty human tumor cell lines derived from nine neoplastic diseases, in accordance with the protocol of the Drug Evaluation Branch, National Cancer Institute, Bethesda [31, 32, 33, 34, 35]. Tested compounds were added to the culture at a single concentration (10^−5 M) and the cultures were incubated for 48 h. End point determinations were made with a protein binding dye, Sulphorhodamine B (SRB). […] The percentage growth was evaluated spectrophotometrically versus controls not treated with test agents.

CCRF-CEM (Leukemia) = assay: NCI one-dose SRB assay; format: cell-based, human; details: 10 μM, 48 h
[3] = tested on: panel of 60 cancer cell lines; assay: NCI DTP one-dose primary anticancer assay (10^-5 M, SRB); details: 10 μM
Method: as §1, §2

A549 (lung) = assay: MTT assay of cell viability; details: Homo sapiens, A549, 72 h
Jurkat (leukemia) = assay: MTT assay of cell viability; details: Homo sapiens, 72 h
[4] = tested on: MDA-MB-468 (Brest Cancer); assay: NCI one-dose SRB assay; format: cell-based, human; details: 10 μM, 48 h
[5] = tested on: BALB-3T3 (normal mouse fibroblasts); assay: MTT assay of cell viability; details: BALB/3T3, 72 h
MDA-MB-435 (Melanoma) = assay: NCI one-dose SRB assay; format: cell-based, human; details: 10 μM, 48 h
[6] = tested on: HCT-116 p53 (−/−) colon cancer cells; assay: MTT assay of cell viability; details: Homo sapiens, HCT-116, 72 h
Text: The cell lines used in our work were kindly provided by a Collection at the Institute of Molecular Biology and Genetics, National Academy of Sciences of Ukraine (Kyiv, Ukraine).

K-562 (Leukemia) = assay: NCI one-dose SRB assay; details: 10 μM, 48 h
Method: as §1, §2

KB3-1 (cervix) = assay: MTT assay of cell viability
[7] = tested on: murine macrophages of J774.2 line; assay: MTT assay of cell viability; details: Mus musculus, J774.2, 72 h
HCT-116 (colon) = assay: MTT assay of cell viability
[8] = tested on: human embryonic kidney HEK293 cells; assay: MTT assay of cell viability; details: HEK293, 72 h
HL-60(TB) (Leukemia) = assay: NCI one-dose SRB assay; format: cell-based, human; details: 10 μM, 48 h
[9] = tested on: human epidermal keratinocytes of HaCaT line; assay: MTT assay of cell viability; details: 72 h
SR (Leukemia) = assay: NCI one-dose SRB assay; details: 10 μM, 48 h
Method: as §1, §2

MCF-7 (breast) = assay: MTT assay of cell viability
SK-OV-3 (ovarian) = assay: MTT assay of cell viability; details: Homo sapiens, SK-OV-3, 72 h
[10] = tested on: panel of cancer cell lines; assay: MTT assay, summary over the tumor cell lines; details: 72 h; for IC50: Homo sapiens, read-out: IC50 toward tumor cells (depending on tumor cell line)
[11] = tested on: HL-60 cells of the acute human promyelocytic leukemia; assay: MTT assay of cell viability
[12] = tested on: pseudo-normal cell lines (HEK293, HaCaT); assay: MTT assay, summary over pseudo-normal cell lines; details: Homo sapiens, 72 h, read-out: IC50 towards pseudo-normal cell lines
MCF-7 cells [13] = assay: Clonogenic assay; format: cell-based, human; details: MCF-7, positive control, concentration not given, 10 days
Method: This assay essentially tests every cell in the population for its ability to undergo “unlimited” division. […] At 1 µM concentration, it reduced the ability of the MCF-7 single cell to grow into a colony to 36%. […] With a concentration equivalent to 10 µM of the compound 4, the DMSO increased the cell’s ability to grow in colony.
MCF-7 cells were seeded in triplicate in 6-well plates (CytoONE, STARLAB International GmbH, Germany) at a density of 500 cells per well. After 24 h incubation, the compound 4 was added in 1 and 10 μM concentrations and cells were treated for 10 days. Colonies containing ≥ 50 cells were fixed with 50% (v/v) methanol in the PBS and stained with crystal violet (Sigma-Aldrich, Burlington, MA, USA). Stained colonies were counted and expressed as a fraction of the untreated control.

[14] = tested on: MCF-7 breast cancer cells; assay: Mitochondrial membrane potential, JC-1 (flow cytometry); format: cell-based, human; details: MCF-7, 5 µM, 24 h, control 5.1 ± 0.7%
Method: A decrease in the mitochondrial membrane potential (MMP, ΔΨm) is one of the earliest changes observed at apoptosis. […] The MCF-7 cells had depolarized mitochondria, reaching 25.3 ± 1.5% and 24.7 ± 0.4% of the cell population treated with the compound 4 and 7, respectively. In the control, there were only 5.1 ± 0.7% cells with a decreased ΔΨm.
Disruption of the MMP was assessed using the lipophilic cationic probe 5,5,6,6-tetrachloro-1,1,3,3-tetraethylbenzimidazolcarbocyanine iodide (JC-1 MitoScreen kit; BD Biosciences San Diego, CA, USA), as described previously. The entire assay was performed according to the manufacturer’s instructions provided with the purchased kit. […] Briefly, unfixed MCF-7 cells were washed and resuspended in the PBS supplemented with the JC-1 dye. Then, cells were incubated for 15 min at room temperature (RT) in the dark, washed, and resuspended in the PBS for the immediate BD FACSCanto II flow cytometry analysis.

[15] = tested on: MCF-7 breast cancer cells; assay: Annexin V-FITC/PI binding assay (flow cytometry); details: MCF-7, 5 µM, 24 h; control 4.4 ± 0.6%
Method: Annexin V-FITC and Propidium Iodide were used for apoptosis measurement.
Apoptosis was determined, as described [42], using Annexin V-FITC binding by means of the FITC Annexin V Apoptosis Detection Kit II(BD Biosciences, San Diego, CA, USA) according to the manufacturer’s instruction. Cells (10,000 cell measured) were analyzed in a BD FACSCanto II flow cytometer (BD Biosciences, San Diego, CA, USA). Annexin V binds with high affinity to phosphatidylserine, and thus, can be used to identify cells in all stages of the programmed cell death. Propidium iodide (PI) exclusively stains cells with a disrupted cell membrane and can be used to identify late apoptotic and dead cells. Cells cultured in a drug-free medium were used as controls. […] The contents of the test tubes were gently vortexed and incubated for 15 min at room temperature, protected from light. After the required time, the contents of the test tubes were made up to 500 µL with the Binding Buffer and immediately analyzed in a flow cytometer. The ratio of the apoptotic cells (early and late) was measured as: a percentage of cells from the upper right square (color red) to percentage of cells from the lower right square (color blue). Analysis was performed using the BD FACSCanto II flow cytometer, and the results were analyzed with FACSDiva software (both from BD Biosciences Systems, San Jose, CA, USA). […]

[16] = Homo sapiens, KB 3-1, 72 h, KB3-1, 72 h of incubation, M ± SD
[17] = Homo sapiens, HCT-116, 72 h, HCT-116, 72 h of incubation, M ± SD
[18] = Homo sapiens, MCF7, 72 h, MCF-7, 72 h of incubation, M ± SD
[19] = HL-60, 72 h of incubation, M ± SD
[20] = HCT-116, 72 h of incubation, M ± SD
[21] = MCF-7, 72 h of incubation, M ± SD

O=C(c1cc(Cc2n[nH]c(=O)c3ccccc23)ccc1F)N1CCn2nc(C(F)(F)F)nc2C1 [Fluzoparib, reference compound]
IC50 (MCF-7 cells [1]): 47 µM
reduction of cell viability (MCF-7 cells [1]; MCF-7, 5, 10 and 15 µM, compared to non-treated cells): 10–12%

N.N.[Cl][Pt][Cl] [cisplatin, reference compound]
morphological changes (KB3-1 cells; KB3-1, 5 µM): significantly less DNA damage

Cc1nc(Nc2ccccn2)sc1C1=NNC(c2ccccc2F)C1 (centres unmarked) [Compound 5, {5-[5-(2-Fluorophenyl)-4,5-dihydro-1H-pyrazol-3-yl]-4-methylthiazol-2-yl}-(pyridin-2-yl)-amine]
Growth % [2]: −18.90%
Growth % (CCRF-CEM (Leukemia)): 19.12%
Range of Growth, % ([3]; 48 h, 60 cell lines): −18.90–118.83%
Positive Cytostatic Effect ([3]; number of cell lines with percent growth from 0 to 50 / total number of cell lines): 25/60
Positive Cytotoxic Effect ([3]; number of cell lines with percent growth of <0 / total number of cell lines): 3/60
IC50 (A549 (lung)): 33.1 ± 1.32 µM
IC50 (Jurkat (leukemia)): > 50 µM
Growth % [4]: −13.74%
IC50 [5]: 34.2 ± 1.7 µM
Growth % (MDA-MB-435 (Melanoma)): −17.91%
IC50 [6]: 34.5 ± 1.02 µM
Growth % (K-562 (Leukemia)): 15.13%
IC50 (KB3-1 (cervix); [16]): 13.1 ± 0.52 µM
IC50 [7]: > 50 µM
IC50 (HCT-116 (colon); [17]): > 50 µM
IC50 [8]: 45.4 ± 2.26 µM
Growth % (HL-60(TB) (Leukemia)): 4.96%
IC50 [9]: > 50 µM
Growth % (SR (Leukemia)): 12.44%
IC50 (MCF-7 (breast); [18]): > 50 µM
IC50 (SK-OV-3 (ovarian)): > 50 µM

Cc1nc(Nc2ccccn2)sc1C(=O)/C=C/c1ccccc1F [Compound 3, (E)-3-(2-Fluorophenyl)-1-[4-methyl-2-(2-pyridylamino)-thiazol-5-yl]-2-propen-1-one]
IC50 (MCF-7 cells [1]; MCF-7, compound alone (no preincubation), 72 h MTT, read-out: IC50): 3.9 µM
IC50 (A549 (lung)): 4.56 ± 0.22 µM
IC50 (Jurkat (leukemia)): 5.2 ± 0.1 µM
IC50 [10]: 0.57 to 7.8 µM
IC50 [11, 19]: 0.57 ± 0.35 µM
morphological changes (KB3-1 cells; KB3-1, 5 µM): significantly less DNA damage
IC50 [12]: > 50 µM
IC50 [5]: 7.18 ± 0.21 µM
IC50 [6]: 2.81 ± 0.16 µM
IC50 (KB3-1 (cervix); [16]): 7.42 ± 0.22 µM
IC50 [7]: > 50 µM
IC50 (HCT-116 (colon); [20]): 2.9 ± 1.03 µM
IC50 [8]: > 50 µM
IC50 [9]: > 50 µM
IC50 (MCF-7 (breast); [21]): 1.86 ± 0.9 µM
IC50 (SK-OV-3 (ovarian)): > 50 µM

CC(=O)c1sc(Nc2ccccn2)nc1C [Compound 2, 1-[4-Methyl-2-(2-pyridylamino)thiazol-5-yl]ethanone]
IC50 (A549 (lung)): > 50 µM
IC50 (Jurkat (leukemia)): > 50 µM
IC50 [10]: > 50 µM
IC50 [6]: > 50 µM
IC50 (KB3-1 (cervix); [16]): 38 ± 1.9 µM
IC50 [7]: > 50 µM
IC50 (HCT-116 (colon); [17]): > 50 µM
IC50 [9]: > 50 µM
IC50 (MCF-7 (breast); [18]): > 50 µM
IC50 (SK-OV-3 (ovarian)): > 50 µM

COc1cccc2c1C(=O)c1c(O)c3c(c(O)c1C2=O)C[C@@](O)(C(=O)CO)C[C@@H]3O[C@H]1C[C@H](N)[C@H](O)[C@H](C)O1 [Doxorubicin, reference compound]
ability of single cell to grow into a colony (compared with control) (MCF-7 cells [13]): 3%
IC50 (A549 (lung)): 2 ± 0.35 µM
IC50 (Jurkat (leukemia)): 1.17 ± 0.12 µM
IC50 ([11]; Homo sapiens, HL-60, 72 h): 0.38 ± 0.5 µM
morphological changes (KB3-1 cells; KB3-1, 1 µM): induced cell membrane damage and membrane blebbing to a greater extent
IC50 [5]: 3.18 ± 0.25 µM
IC50 [6]: 1.19 ± 1.3 µM
IC50 (KB3-1 (cervix); Homo sapiens, KB 3-1, 72 h): 4 ± 1.3 µM
IC50 [7]: 1.74 ± 1.1 µM
IC50 (HCT-116 (colon); Homo sapiens, HCT-116, 72 h): 0.9 ± 0.09 µM
IC50 [8]: 1.29 ± 0.87 µM
IC50 [9]: > 10 µM
IC50 (MCF-7 (breast); Homo sapiens, MCF7, 72 h): 1.04 ± 0.8 µM
IC50 (SK-OV-3 (ovarian)): 3.2 ± 0.1 µM

CS(=O)(=O)O.Cc1nc(Nc2ccccn2)sc1C(=O)/C=C/c1ccccc1F [Compound 7, (E)-3-(2-Fluorophenyl)-1-[4-methyl-2-(pyridin-1-ium-2-ylamino)thiazol-5-yl]-2-propen-1-one Methanesulfonate]
cells with depolarized mitochondria (decreased ΔΨm) [14]: 24.7 ± 0.4%
IC50 toward tumor cells (depending on tumor cell line) ([10]; summary over tumor cell lines, MTT): acted more weakly compared with 3 and 4
IC50 [11, 19]: > 10 µM
IC50 (KB3-1 (cervix); KB3-1, 72 h of incubation, M ± SD): 3.96 ± 1.23 µM
IC50 (HCT-116 (colon); [20]): 7.27 ± 0.27 µM
apoptotic cells (sum of early and late apoptotic cells) [15]: 31.0 ± 1.9%
IC50 (MCF-7 (breast); [21]): 4.3 ± 0.98 µM
